From patent US11649430B2 (priority 2018, dated 2023)

Test system: R. solanacearum
Format: cell-based, Ralstonia solanacearum
Settings: ΔrmyA mutant strain (more sensitive than WT); 0.4 mM; 24 hours

SMILES	R. solanacearum growth (OD)
COC1=C(O)C(=O)C2=C(C1=O)[C@H]1N[C@@H](Cc3c[nH]c4ccccc34)C(=O)N1C(C(=O)N[C@@H](CC(C)CO)C(=O)O)C2 (some centres unmarked) [Imizoquin A, imizoquin A]	decreases R. solanacearum growth modestly
COC1=C(O)C(=O)C2=C(C1=O)[C@H]1N[C@@H](Cc3c[nH]c4ccccc34)C(=O)N1C(C(=O)N[C@@H](CC(CO)CO)C(=O)O)C2 (some centres unmarked) [Imizoquin B, imizoquin B]	decreases R. solanacearum growth modestly
